Measured values from PMC6382696, “Drug Repurposing: The Anthelmintics Niclosamide and Nitazoxanide Are Potent TMEM16A Antagonists That Fully Bronchodilate Airways” (Frontiers in Pharmacology, 2019).
Where two headings read alike, the source gives them in different places.

What was measured:
TMEM16A (acd) = target: T1, TMEM16A (acd) (Homo sapiens, UniProt Q5XXA6); assay: QPatch whole-cell electrophysiology, HEK293 TMEM16A (acd); assay type: cell-based; conditions: for effect on inward current at −100 mV, whole cell patch clamp: 170 nM free calcium, Vhold 0 mV; for IC50 / calcium-activated chloride current inhibited: QPatch; for IC50: outward current at +100 mV, 170 nM free intracellular calcium, ~60 s per concentration, read-out: TMEM16A Chloride Current (IC50); for calcium-activated chloride current inhibited: maximum antagonist activity; for time to achieve steady state block: single concentration
T1 sequence (Q5XXA6 1-986): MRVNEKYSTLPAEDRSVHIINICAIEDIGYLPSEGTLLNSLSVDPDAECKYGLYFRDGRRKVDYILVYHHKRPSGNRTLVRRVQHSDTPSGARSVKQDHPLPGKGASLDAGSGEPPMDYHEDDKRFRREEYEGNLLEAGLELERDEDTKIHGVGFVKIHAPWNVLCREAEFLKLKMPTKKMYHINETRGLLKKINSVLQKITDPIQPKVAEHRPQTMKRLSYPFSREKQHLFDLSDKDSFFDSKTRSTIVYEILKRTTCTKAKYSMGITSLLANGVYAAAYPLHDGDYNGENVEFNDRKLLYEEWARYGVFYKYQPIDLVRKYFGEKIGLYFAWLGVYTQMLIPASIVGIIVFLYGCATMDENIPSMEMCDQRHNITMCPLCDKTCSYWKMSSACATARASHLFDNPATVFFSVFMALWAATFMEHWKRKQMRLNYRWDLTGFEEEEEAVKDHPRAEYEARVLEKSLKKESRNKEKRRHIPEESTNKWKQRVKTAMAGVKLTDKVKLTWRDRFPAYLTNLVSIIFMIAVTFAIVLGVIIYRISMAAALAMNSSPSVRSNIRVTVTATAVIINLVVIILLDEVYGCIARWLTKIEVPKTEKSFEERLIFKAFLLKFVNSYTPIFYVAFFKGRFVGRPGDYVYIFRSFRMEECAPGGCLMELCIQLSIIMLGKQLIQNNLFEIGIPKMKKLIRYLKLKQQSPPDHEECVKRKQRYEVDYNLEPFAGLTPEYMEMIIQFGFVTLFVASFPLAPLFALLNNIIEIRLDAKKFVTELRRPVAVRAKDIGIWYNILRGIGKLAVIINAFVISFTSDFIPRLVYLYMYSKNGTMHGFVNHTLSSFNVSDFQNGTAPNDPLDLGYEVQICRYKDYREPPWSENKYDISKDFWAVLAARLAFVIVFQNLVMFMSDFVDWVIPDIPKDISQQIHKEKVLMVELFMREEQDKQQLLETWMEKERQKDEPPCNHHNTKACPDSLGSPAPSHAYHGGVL
From the text: HEK293 cells stably expressing the TMEM16A (acd) variant were purchased from SB Drug Discovery. The HEK293 TMEM16A (abc) stable cell line was from ChanTest and COLO-205 cells were purchased from ATCC. The same standard buffers and recording conditions listed below were used for QPatch studies on all three cell lines.
Recording Solutions: were made weekly as below and stored at room temperature until used. It is recommended not to add ATP to internal solution until immediately before using on the QPatch. The external buffer (in mM) was 140 NaCl, 4 KCl, 2 CaCl2, 1 MgCl2, 10 HEPES, 10 Glucose, pH7.4, while the internal buffer (in mM) was 110 CsCl, 20 TEA-Cl, 5.374 CaCl2, 1.75 MgCl2, 10 EGTA, 10 HEPES, 4 Na2ATP, pH 7.2.
Once established in whole-cell configuration, cells were clamped to a holding potential (Vhold) of 0 mV on 48 well single hole patch plate. A standardized IV protocol was used to elicit ionic current through the TMEM16A chloride channel at 20 s intervals. Steady-state voltage pulses were from −100 mV to +100 mV in +20 mV steps for a duration of 500 ms. After each pulse the voltage was returned to −100 mV for 50 ms to obtain tail currents, and then returned to the holding potential of 0 mV until the beginning of the next sweep. […] This ensures a minimum of 60 s per concentration incubation before measuring current block. Currents were acquired at 10 kHz and filtered at 2 kHz, leak subtraction and Rseries were disabled. A 1 MΩ minimum resistance was set because cells are held in an open channel state and therefore resistance is low.
A cumulative concentration response was measured where each cell is exposed to five concentrations of test article with a dilution factor of 1:5 (e.g., 0.048, 0.24, 1.2, 6, and 30 μM). Cells were recorded for ∼60 s per solution/compound addition. Initially, external solution is applied twice to allow currents to stabilize. Then vehicle (from the saline reservoir) is added twice to monitor any effect 0.3% DMSO might have on currents. This leads directly into the concentration runs by applying Concentration 1 (single addition) for 1 min. Concentration 2 is then applied for the subsequent minute, etc. Recovery/washout was monitored for a final minute with a final external solution addition.
[…] […] Each cell’s current magnitude was then normalized to itself at the initial 0.3% vehicle control period prior to compound application. This step is to account for differences in current size for each cell. Normalized responses to test article were plotted against their concentrations to reveal a concentration-inhibition plot.
A Normalized Group Hill fit was then performed on the plotted results to yield a pooled IC50 value, reconstructed from a minimum of two cells/concentration. The baseline response as well as the full response were constrained to 1 and 0, respectively.

mouse tracheal rings = assay: Wire myograph bronchodilation of carbachol pre-contracted mouse tracheal rings; conditions: for EC50: Mus musculus; for time to steady-state relaxation of mouse tracheal rings: EC75 carbachol; for onset of action: bronchodilating mouse airways, summary
Protocol: The trachea from C57 BL/6 mice was dissected and collected in PBS with Mg^2+ and Ca^2+. After further trimming, two 2 mm sections (rings) per trachea were then placed in DMEM media containing PSG/HEPES/AA/NaPyr for 1 h and used immediately or maintained overnight at 37°C in a humidified incubator with 5% CO2. Rings were then mounted into chambers of DMT wire myograph containing L-shaped mounting pins with 2–3 mN of force applied to secure rings on the pins and the rings were allowed to equilibrate for 25–30 min in a physiological saline buffer (PSS, 130 mM NaCl, 4.7 mM KCl, 1.2 mM MgS04, 14.9 mM NaHCO3, 1.2 mM KH2PO4, 0.026 mM EDTA, 1.6 mM CaCl2, 5.5 mM Dextrose). Throughout the experiment, rings were maintained at physiological temperature and gas conditions by heating buffer reservoir and chamber to 37°C and bubbling a 95% O2, 5% CO2 gas mixture into chamber.
After equilibration, a standard tissue “Wake-Up” procedure was applied by altering tension and then treatment with elevated potassium as follows: 3 mN tension was applied for 5–10 min, then another 2–3 mN tension to total of 5.5 mN and then to 7–8 mN for another 5 min; the tissue pre-tension was then set to 5 mN and allowed to equilibrate for 5–10 min followed by the removal of the PSS buffer and addition of KPSS (60 mM KCl, 74.7 mM NaCl in PSS solution), with force changes monitored until they reached a plateau. The tissue was then washed four times with PSS over 5 min and the KPSS treatment and washes repeated; the tissue was then allowed to sit in PSS for 10 min and the tension was set to 5 mN.
The tissue was then washed three times and then three times more with PSS for 5 min until tension returned to baseline.
Only tissue that passed the qualification tests above advanced to studies on test article compounds. […] For standard ascending dose-response studies on TMEM16A antagonists, an EC75 or EC95 concentration of CCh was used to pre-contract tracheal rings.

[1] = carbachol pre-contracted, values marked † (footnote not given), read-out: Bronchodilation of Mouse Tracheal Rings (EC50)
[2] = carbachol pre-contracted, values marked § (footnote not given), read-out: Bronchodilation of Mouse Tracheal Rings (EC50)
[3] = pre-contracted with EC75 carbachol, average, read-out: EC50 relaxation of mouse tracheal rings

| Compound | effect on inward current at −100 mV, whole cell patch clamp (TMEM16A (acd)) | IC50 (TMEM16A (acd)) [nM] | EC50 (mouse tracheal rings; [1]) [nM] | also measured |
| --- | --- | --- | --- | --- |
| N#Cc1c(C(F)(F)F)cc(O)n2c1nc1ccccc12 [1PBC] | paradoxical increase | 2810 ± 1250 | 1770 | calcium-activated chloride current inhibited (TMEM16A (acd)): Over 80% |
| CCc1oc2ccccc2c1C(=O)c1cc(Br)c(O)c(Br)c1 [Benzbromarone] | inhibited | 4090 ± 2080 | 1280 ± 211 | time to steady-state relaxation of mouse tracheal rings (mouse tracheal rings; 1 μM): 40 to 60 min; EC50 (mouse tracheal rings; pre-contracted with EC75 carbachol, read-out: EC50 relaxation of mouse tracheal rings): 1280 nM; onset of action (mouse tracheal rings): 17 to 60 min |
| CC(C)(C)C1CCc2c(sc(NC(=O)c3ccco3)c2C(=O)O)C1 (centres unmarked) [CaCCinh-A01] | – | – | 13500 | – |
| O=C(Nc1ccc([N+](=O)[O-])cc1)c1cc(Cl)ccc1O [Cpd 2] | – | – | 483 | EC50 (mouse tracheal rings; [2]): 585 nM |
| O=C(Nc1ccc([N+](=O)[O-])cc1)c1cc(Cl)c2ccccc2c1O [Cpd 3] | no significant effect | 610 ± 620 | – | EC50 (mouse tracheal rings; [2]): 606 ± 3 nM |
| COc1cc([N+](=O)[O-])ccc1NC(=O)c1cc(Cl)c2ccccc2c1O [Cpd 4] | no significant effect | 620 ± 370 | 467 ± 167 | time to steady-state relaxation of mouse tracheal rings (mouse tracheal rings; 316 nM): 25 to 45 min; EC50 (mouse tracheal rings; [3]): ~332 nM; onset of action (mouse tracheal rings): 17 to 60 min |
| O=C(Nc1ccc(Cl)cc1)c1cc(Cl)ccc1O [Cpd 5] | – | 2260 ± 650 | 1120 | – |
| Oc1ccc(Cl)cc1Cc1cc(Cl)ccc1O [Dichlorophen] | – | 4660 ± 2200 | 2010 | – |
| COc1cc(Nc2ccc([N+](=O)[O-])cc2C(=O)O)cc2ccccc12 [MONNA] | inhibited | 13600 ± 9760 | 3020 | – |
| O=C(Nc1ncc([N+](=O)[O-])s1)c1cccs1 [NTTP] | – | 4690 | – | EC50 (mouse tracheal rings; [2]): 7610 nM |
| O=C(Nc1ccc([N+](=O)[O-])cc1Cl)c1cc(Cl)ccc1O [Niclosamide] | paradoxical increase | 2370 ± 2110 | 379 ± 82 | time to achieve steady state block (TMEM16A (acd); 1.11 μM): about 10 min; time to achieve steady state block (TMEM16A (acd); 3.3 μM): approximately 4 min; calcium-activated chloride current inhibited (TMEM16A (acd)): Over 80%; time to steady-state relaxation of mouse tracheal rings (mouse tracheal rings; 1 μM): 17 to 35 min; EC50 (mouse tracheal rings; [3]): 365 nM; onset of action (mouse tracheal rings): 17 to 60 min |
| O=C(O)c1cccnc1Nc1cccc(C(F)(F)F)c1 [Niflumic Acid] | stimulating | 8540 ± 6750 | 51200 | – |
| CCc1c(C)nc(SCC(=O)Nc2nc(-c3ccc(OC)cc3)cs2)[nH]c1=O [T16Ainh-A01] | – | > 30000 | > 50000 | – |
| O=C(Nc1ncc([N+](=O)[O-])s1)c1ccccc1O [Tizoxanide] | – | 4420 ± 2400 | 3900 | – |
